Laboratory results reported in patent publication US4137322A, “ML-236B carboxylic acid derivatives and their use as antihyperlipemic agents” (Sankyo Company Limited, priority 1976, dated 1979).
Structures can show the parent of a compound that is named as a salt.

Tests used:
[1] = target: T1, 3-hydroxy-3-methylglutaryl-CoA reductase (Rattus norvegicus, UniProt P51639); assay: Inhibition of 3-hydroxy-3-methylglutaryl-CoA reductase; assay type: biochemical; details: enzyme: microsome of rat liver; read-out: Concentration to inhibit 50% of 3-hydroxy-3-methylglutaryl-CoA reductase (converted)
T1 construct: Employed as an enzyme microsome of rat liver; from tissue; host or cells: rat liver microsomes
T1 sequence (P51639 1-887): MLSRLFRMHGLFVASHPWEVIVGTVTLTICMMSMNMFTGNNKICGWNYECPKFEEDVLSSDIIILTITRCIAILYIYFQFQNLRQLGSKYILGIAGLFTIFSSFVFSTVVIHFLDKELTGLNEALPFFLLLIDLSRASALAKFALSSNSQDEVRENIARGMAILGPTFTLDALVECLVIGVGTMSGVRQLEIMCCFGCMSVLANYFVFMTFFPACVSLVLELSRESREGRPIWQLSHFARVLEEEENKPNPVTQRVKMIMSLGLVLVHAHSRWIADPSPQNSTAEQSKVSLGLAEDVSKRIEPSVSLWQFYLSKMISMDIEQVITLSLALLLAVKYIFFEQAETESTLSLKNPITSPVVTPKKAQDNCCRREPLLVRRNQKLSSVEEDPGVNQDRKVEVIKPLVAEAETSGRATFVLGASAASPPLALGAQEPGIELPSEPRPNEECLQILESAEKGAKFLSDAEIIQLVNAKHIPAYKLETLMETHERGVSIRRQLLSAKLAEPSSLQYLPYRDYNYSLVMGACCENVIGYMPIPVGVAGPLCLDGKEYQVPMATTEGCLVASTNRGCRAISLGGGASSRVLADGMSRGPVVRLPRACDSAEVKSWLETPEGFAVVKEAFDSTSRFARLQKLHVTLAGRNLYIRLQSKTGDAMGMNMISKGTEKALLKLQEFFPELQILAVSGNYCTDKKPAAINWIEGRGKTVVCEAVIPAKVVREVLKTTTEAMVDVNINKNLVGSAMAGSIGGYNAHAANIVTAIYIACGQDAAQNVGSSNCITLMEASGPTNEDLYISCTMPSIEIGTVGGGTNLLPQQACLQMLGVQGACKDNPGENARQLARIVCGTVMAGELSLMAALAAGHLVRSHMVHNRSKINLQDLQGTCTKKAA
Source text: Inhibition activity of cholesterol biosynthesis [determined according to the method disclosed in J. Biol. Chem., 234, 2835 (1959)] and inhibition activity on 3-hydroxy-3-methylglutaryl-CoA reductase [determined according to the method disclosed in Anal. Biochem., 31, 383 (1969)] of these compounds are summarized in Table 1.
*Employed as an enzyme microsome of rat liver.

Rat = assay: Acute toxicity in rat; details: aqueous suspension
Method: (§1) Acute toxicity of ML-236B carboxylic acid derivatives (I) was determined in oral and intraperitoneal administration (both as an aqueous suspension).

Acute toxicity in rat = details: in vivo, ip, LD50, rat, aqueous suspension
Method: as §1

[2] = system: total serum cholesterol in beagle dogs; assay: Lowering activity of blood cholesterol in beagle dogs; assay type: in vivo, beagle dog; details: beagle dogs, oral twice per day, 5 days
Source text: The test was to orally administer an encapsulated test sample twice per day, in the morning (9 o'clock) and evening (16 o'clock), for continuous 5 days, collect a blood sample in the morning after 5 days and determine a total cholesterol level in serum by a conventional method.

Mouse = assay: Acute toxicity in mouse; details: aqueous suspension
Method: as §1

Acute toxicity in mouse = details: in vivo, ip, LD50, mouse, aqueous suspension
Method: as §1

cholesterol biosynthesis = assay: Inhibition of cholesterol biosynthesis; assay type: biochemical
[3] = system: serum cholesterol in rats; assay: Lowering activity of blood cholesterol in rats; assay type: in vivo, rat; details: rats, oral, after 18 hours
Method: A lowering activity of blood cholesterol in rats was assayed on rats. The test was to orally administer a test sample suspended in water, collect a blood sample after 18 hours and determine a cholesterol level in serum by a conventional method.

[4] = p.o., listed as ML-236B Na salt

Structure (SMILES)	IC50 [1]	LD50 (Rat; [4])	LD50 (Acute toxicity in rat)	inhibition in vivo at 25 mg/kg/day ([2]; Canis lupus familiaris, po, 120 h, 25 mg/kg/day, read-out: Lowering rate of total serum cholesterol)	inhibition in vivo at 100 mg/kg/day ([2]; Canis lupus familiaris, po, 120 h, 100 mg/kg/day, read-out: Lowering rate of total serum cholesterol)	LD50 (Mouse; [4])	LD50 (Acute toxicity in mouse)	Concentration to inhibit 50% of cholesterol biosynthesis (cholesterol biosynthesis)	inhibition in vivo at 5 mg/kg ([3]; Rattus norvegicus, po, 18 h, 5 mg/kg, read-out: Lowering rate of serum cholesterol)	inhibition in vivo at 20 mg/kg ([3]; Rattus norvegicus, po, 18 h, 20 mg/kg, read-out: Lowering rate of serum cholesterol)	LD50 (Rat; i.p.)	LD50 (Rat; p.o., listed as Al salt)	Lowering rate of total serum cholesterol ([2]; 25 mg/kg/day)	Lowering rate of total serum cholesterol ([2]; 100 mg/kg/day)	LD50 (Mouse; i.p.)	LD50 (Mouse; p.o., listed as Al salt)	Lowering rate of serum cholesterol ([3]; 5 mg/kg, 5 mg/kg)	Lowering rate of serum cholesterol ([3]; 20 mg/kg, 20 mg/kg)	LD50 (Rat; p.o.)	LD50 (Mouse; p.o.)
CCC(C)C(=O)OC1CCC=C2C=CC(C)C(CCC(O)CC(O)CC(=O)O)C21 (centres unmarked) [Na, Sodium ML-236B carboxylate]	0.392 µM	> 2,000 mg/kg	> 500 mg/kg	24%	47%	> 2,000 mg/kg	> 500 mg/kg	0.006 µg/mL	20.6%	23.1%										
CCC(C)C(=O)OC1CCC=C2C=CC(C)C(CCC(O)CC(O)CC(=O)O)C21 (centres unmarked) [Al, Aluminum ML-236B carboxylate]								0.006 µg/mL			> 500 mg/kg	> 2,000 mg/kg	26%	41%	> 500 mg/kg	> 2,000 mg/kg	18.3%	22.1%		
CCC(C)C(=O)OC1CCC=C2C=CC(C)C(CCC(O)CC(O)CC(=O)O)C21 (centres unmarked) [Arginine, Arginine salt of ML-236B carboxylic acid]	0.441 µM							0.007 µg/mL			> 500 mg/kg		26%	45%	> 500 mg/kg		19.6%	24.1%	> 5,000 mg/kg	> 5,000 mg/kg
